Patent US8901035B2, “Herbicidal compositions comprising 4-amino-3-chloro-5-fluoro-6-(4-chloro-2-fluoro-3-methoxyphenyl) pyridine-2-carboxylic acid or a derivative thereof and cellulose biosynthesis inhibitor herbicides” (Dow AgroSciences LLC, priority 2012, dated 2014)

Legend:
Format in all cases: in vivo
[1] = tested on: Abutilon theophrasti Medik. (ABUTH); assay: Pre-emergence soil-applied herbicidal mixtures for weed control (greenhouse)
Excerpt: Seeds or nutlets of the desired test plant species were planted in a soil matrix prepared by mixing a loam soil (e.g., 32 percent silt, 23 percent clay, and 45 percent sand, with a pH of about 6.5 and an organic matter content of about 1.9 percent) and calcareous grit in an 80 to 20 ratio. The soil matrix was contained in plastic pots with a volume of 1 quart and a surface area of 83.6 square centimeters (cm^2).
Treatments consisted of the benzyl ester of 4-amino-3-chloro-5-fluoro-6-(4-chloro-2-fluoro-3-methoxy-phenyl)pyridine-2-carboxylic acid (compound A) formulated as an SC (suspension concentrate) and various herbicidal components alone and in combination. Forms of compound A were applied on an acid equivalent basis.
Other herbicidal components were applied on an acid equivalent or active ingredient basis and included the cellulose biosynthesis inhibiting herbicides, isoxaben formulated as Gallery® 75DF and indaziflam formulated as Specticle® 20WSP.
(§1) Treatment requirements were calculated based upon the rates being tested, the concentration of active ingredient or acid equivalent in the formulation, and a 12 mL application volume at a rate of 187 L/ha.
For treatments comprised of formulated compounds, measured amounts of compounds were placed individually in 25 mL glass vials and diluted in a volume of 1.25% (v/v) Agri-Dex® crop oil concentrate (COC) to obtain 12× stock solutions. […] Application solutions were prepared by adding an appropriate amount of each stock solution (e.g., 1 mL) and diluted to the appropriate final concentrations with the addition of 10 mL of an aqueous mixture of 1.25% (v/v) COC so that the final spray solutions contained 1.25% (v/v) COC.
All stock solutions and applications solutions were visually inspected for compound compatibility prior to application. Spray solutions were applied to the soil with an overhead Mandel track sprayer equipped with a 8002E nozzles calibrated to deliver 187 L/ha over an application area of 0.503 m^2 at a spray height of 18 inches (46 cm) above average pot height. Control pots were sprayed in the same manner with the solvent blank.
The treated and control pots were placed in a greenhouse and top watered as needed. When required to ensure good germination and healthy plants, a fungicide treatment and/or other chemical or physical treatment was applied. The pots were maintained in a greenhouse with an approximate 14 hr. photoperiod which was maintained at about 29° C. during the day and 26° C. during the night. Nutrients (Peters® Excel 15-5-15 5-Ca 2-Mg) were applied in the irrigation solution as needed and water was added on a regular basis. Supplemental lighting was provided with overhead metal halide 1000-Watt lamps as necessary. After approximately 4 weeks, the condition of the test plants as compared with that of the untreated plants was determined visually and scored on a scale of 0 to 100 percent where 0 corresponds to no injury or growth inhibition and 100 corresponds to complete kill.
(§2) Colby's equation was used to determine the herbicidal effects expected from the mixtures (Colby, S. R. 1967. Calculation of the synergistic and antagonistic response of herbicide combinations. Weeds 15:20-22).
(§3) The following equation was used to calculate the expected activity of mixtures containing two active ingredients, A and B: Expected=A+B−(A×B/100)
(§4) A=observed efficacy of active ingredient A at the same concentration as used in the mixture.
(§5) B=observed efficacy of active ingredient B at the same concentration as used in the mixture.

[2] = tested on: Leptochloa chinensis (L.) Nees (LEFCH); assay: Postemergence foliar-applied herbicidal mixtures, weed control in direct seeded rice (greenhouse)
Excerpt: (§6) Seeds or nutlets of the desired test plant species were planted in a soil matrix prepared by mixing a loam or sandy loam soil (e.g., 28.6 percent silt, 18.8 percent clay, and 52.6 percent sand, with a pH of about 5.8 and an organic matter content of about 1.8 percent) and calcareous grit in an 80 to 20 ratio. The soil matrix was contained in plastic pots with a volume of 1 quart and a surface area of 83.6 square centimeters (cm^2). When required to ensure good germination and healthy plants, a fungicide treatment and/or other chemical or physical treatment was applied. The plants were grown for 8-22 days in a greenhouse with an approximate 14 h photoperiod which was maintained at about 29° C. during the day and 26° C. during the night. Nutrients (Peters Excel® 15-5-15 5-Ca 2-Mg and iron chelate) were applied in the irrigation solution as needed and water was added on a regular basis. Supplemental lighting was provided with overhead metal halide 1000-Watt lamps as necessary. The plants were employed for testing when they reached the first through fourth true leaf stage.
(§7) Treatments consisted of the acid or esters of 4-amino-3-chloro-5-fluoro-6-(4-chloro-2-fluoro-3-methoxy-phenyl) pyridine-2-carboxylic acid (Compound A), each formulated as an SC (suspension concentrate), and various herbicidal components alone and in combination. Forms of compound A were applied on an acid equivalent basis.
(§8) Other herbicidal components were applied on an active ingredient basis and included cellulose biosynthesis-inhibiting (CBI) herbicides isoxaben formulated as Gallery® 75DF and indaziflam formulated as Specticle® 20WSP.
as §1
(§9) For treatments comprised of formulated compounds, measured amounts of compounds were placed individually in 25 mL glass vials and diluted in a volume of 1.25% (v/v) Agri-Dex® crop oil concentrated to obtain 12× stock solutions. […] Application solutions were prepared by adding an appropriate amount of each stock solution (e.g., 1 mL) and diluted to the appropriate final concentrations with the addition of 10 mL of an aqueous mixture of 1.25% (v/v) crop oil concentrate so that the final spray solutions contained 1.25+/−0.05% (v/v) crop oil concentrate.
(§10) All stock solutions and applications solutions were visually inspected for compound compatibility prior to application. Spray solutions were applied to the plant material with an overhead Mandel track sprayer equipped with a 8002E nozzles calibrated to deliver 187 L/ha over an application area of 0.503 m^2 at a spray height of 18 to 20 inches (46 to 50 cm) above average plant canopy height. Control plants were sprayed in the same manner with the solvent blank.
(§11) The treated plants and control plants were placed in a greenhouse as described above and watered by sub-irrigation to prevent wash-off of the test compounds. After approximately 3 weeks, the condition of the test plants as compared with that of the untreated plants was determined visually and scored on a scale of 0 to 100 percent where 0 corresponds to no injury or growth inhibition and 100 corresponds to complete kill.
as §2, §3, §4, §5

[3] = tested on: Digitaria sanguinalis (L.) Scop. (DIGSA); assay: as above
Excerpt: as §6, §7, §8, §1, §9, §10, §11, §2, §3, §4, §5

[4] = tested on: Ipomoea hederacea Jacq. (IPOHE); assay: as above
Excerpt: as §6, §7, §8, §1, §9, §10, §11, §2, §3, §4, §5

[5] = tested on: Brachiaria platyphylla (Griseb.) Nash or Urochloa platyphylla (Nash) R.D. Webster (BRAPP); assay: as above
Excerpt: as §6, §7, §8, §1, §9, §10, §11, §2, §3, §4, §5

Cyperus iria L. (CYPIR) = assay: as above
Excerpt: as §6, §7, §8, §1, §9, §10, §11, §2, §3, §4, §5

[6] = Compound A Benzyl Ester 4.38 g ae/ha alone
[7] = Compound A Benzyl Ester 8.75 g ae/ha alone
[8] = Compound A Benzyl Ester 17.5 g ae/ha alone

COc1c(Cl)ccc(-c2nc(C(=O)OCc3ccccc3)c(Cl)c(N)c2F)c1F [Compound A Benzyl Ester, benzyl ester of 4-amino-3-chloro-5-fluoro-6-(4-chloro-2-fluoro-3-methoxy-phenyl)pyridine-2-carboxylic acid]
Visual Weed Control (%) - 27 DAA ABUTH Obs ([1]; Compound A Benzyl Ester 16 g ae/ha alone): 48%
Visual Weed Control (%) - 27 DAA ABUTH Obs ([1]; Compound A Benzyl Ester 32 g ae/ha alone): 87%
Visual Weed Control (%) - 21 DAA Obs [2, 6]: 30%
Visual Weed Control (%) - 21 DAA Obs [2, 7]: 35%
Visual Weed Control (%) - 21 DAA Obs [2, 8]: 35%
Visual Weed Control (%) - 21 DAA Obs [3, 6]: 10%
Visual Weed Control (%) - 20 DAA Obs [3, 7]: 30%
Visual Weed Control (%) - 21 DAA Obs [3, 7]: 45%
Visual Weed Control (%) - 20 DAA Obs [3, 8]: 30%
Visual Weed Control (%) - 21 DAA Obs [3, 8]: 70%
Visual Weed Control (%) - 20 DAA Obs [4, 6]: 10%
Visual Weed Control (%) - 20 DAA Obs [4, 7]: 10%
Visual Weed Control (%) - 20 DAA Obs [4, 8]: 15%
Visual Weed Control (%) - 20 DAA Obs [5, 6]: 70%
Visual Weed Control (%) - 20 DAA Obs [5, 7]: 80%
Visual Weed Control (%) - 20 DAA Obs [5, 8]: 90%
Visual Weed Control (%) - 20 DAA Obs (Cyperus iria L. (CYPIR); [6]): 70%

CCC(C)(CC)c1cc(NC(=O)c2c(OC)cccc2OC)on1 [Isoxaben, N-[3-(1-ethyl-1-methylpropyl)-5-isoxazolyl]-2,6-dimethoxybenzamide, reference compound]
Visual Weed Control (%) - 27 DAA ABUTH Obs ([1]; Isoxaben 560 g ai/ha alone): 77%
Visual Weed Control (%) - 27 DAA ABUTH Obs ([1]; Isoxaben 1120 g ai/ha alone): 67%
Visual Weed Control (%) - 20 DAA Obs ([2]; Isoxaben 140 g ai/ha alone): 0%
Visual Weed Control (%) - 20 DAA Obs ([2]; Isoxaben 280 g ai/ha alone): 0%
Visual Weed Control (%) - 20 DAA Obs ([3]; Isoxaben 280 g ai/ha alone): 10%
Visual Weed Control (%) - 20 DAA Obs ([3]; Isoxaben 560 g ai/ha alone): 20%
Visual Weed Control (%) - 20 DAA Obs ([4]; Isoxaben 140 g ai/ha alone): 15%
Visual Weed Control (%) - 20 DAA Obs ([4]; Isoxaben 280 g ai/ha alone): 25%
Visual Weed Control (%) - 20 DAA Obs ([5]; Isoxaben 140 g ai/ha alone): 0%
Visual Weed Control (%) - 20 DAA Obs ([5]; Isoxaben 280 g ai/ha alone): 0%
Visual Weed Control (%) - 20 DAA Obs ([5]; Isoxaben 560 g ai/ha alone): 20%
Visual Weed Control (%) - 20 DAA Obs (Cyperus iria L. (CYPIR); Isoxaben 140 g ai/ha alone): 10%
Visual Weed Control (%) - 20 DAA Obs (Cyperus iria L. (CYPIR); Isoxaben 280 g ai/ha alone): 60%
Visual Weed Control (%) - 20 DAA Obs (Cyperus iria L. (CYPIR); Isoxaben 560 g ai/ha alone): 50%
